Consider 21 molecules from US12522594B2, “2-heteroaryl-3-oxo-2,3-dihydropyridazine-4-carboxamides for the treatment of cancer” (Deutsches Krebsforschungszentrum, priority 2017, dated 2026).

The target of experiment [1] is T1, AHR (Homo sapiens, UniProt P35869).
T1 sequence (P35869 11-848): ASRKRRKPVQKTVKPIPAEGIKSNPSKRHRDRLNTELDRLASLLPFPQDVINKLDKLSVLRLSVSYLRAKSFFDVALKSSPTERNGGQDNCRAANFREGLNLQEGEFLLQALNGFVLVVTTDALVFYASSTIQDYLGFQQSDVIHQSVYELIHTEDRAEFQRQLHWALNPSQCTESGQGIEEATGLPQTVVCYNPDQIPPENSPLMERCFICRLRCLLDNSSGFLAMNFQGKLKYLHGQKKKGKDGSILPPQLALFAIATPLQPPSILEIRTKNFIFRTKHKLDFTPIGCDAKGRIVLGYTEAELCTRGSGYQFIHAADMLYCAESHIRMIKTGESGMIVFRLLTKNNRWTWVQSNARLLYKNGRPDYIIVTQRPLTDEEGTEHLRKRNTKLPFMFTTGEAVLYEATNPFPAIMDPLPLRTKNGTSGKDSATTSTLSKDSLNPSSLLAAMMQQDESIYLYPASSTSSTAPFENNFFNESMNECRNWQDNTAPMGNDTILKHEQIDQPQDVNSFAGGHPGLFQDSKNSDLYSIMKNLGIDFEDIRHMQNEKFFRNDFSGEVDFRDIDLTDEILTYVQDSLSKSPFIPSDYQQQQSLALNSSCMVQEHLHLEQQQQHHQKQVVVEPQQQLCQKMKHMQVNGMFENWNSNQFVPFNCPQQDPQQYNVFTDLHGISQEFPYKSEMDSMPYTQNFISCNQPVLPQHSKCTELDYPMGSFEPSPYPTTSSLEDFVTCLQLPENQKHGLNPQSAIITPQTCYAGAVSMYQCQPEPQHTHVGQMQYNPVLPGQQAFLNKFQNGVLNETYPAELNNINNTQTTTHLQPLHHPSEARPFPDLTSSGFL
The experiment can be described thus: In vitro assay 1: antagonism in human cell line (transactivation assay, U87 cells prestimulated with kynurenic acid, DRE firefly luciferase reporter). Set-up: host or cells: U87 glioblastoma cells, stably transfected with DRE firefly luciferase and renilla reporter constructs. Type of experiment: cell-based. The conditions noted are these: 150 uM kynurenic acid, 20 hours, read-out: Assay 1: AHR-luc Hum Antagonism IC50. The gist of the method: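 U87 glioblastoma cells with endogenous AHR, stably carrying a DRE-driven firefly luciferase reporter and a constitutive renilla reporter. Cells prestimulated with the AHR agonist kynurenic acid before compound addition; data normalized to positive and negative controls.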

For experiment [2], the target named is T1, AHR. The experiment can be described thus: In vitro assay 2: agonism in human cell line (transactivation assay, U87 cells, DRE firefly luciferase reporter). The experiment is classed as cell-based. More on the design: host or cells: U87 glioblastoma cells, stably transfected with DRE firefly luciferase and renilla reporter constructs. The settings on record: no kynurenic acid, 20 hours, read-out: Assay 2: AHR-luc Hum Agonism IC50. The essentials:
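U87 glioblastoma cells with endogenous AHR, stably carrying DRE-driven firefly luciferase and constitutive renilla reporters. 300 uM kynurenic acid served as positive activation control; data normalized to positive and negative controls.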
In general terms: A reporter such as luciferase makes a cellular process visible.

As for `O=C(N[C@H]1COC[C@@H]1O)c1cc(-c2ccc(OC(F)(F)F)cc2)nn(-c2cccnc2)c1=O` (single isomer, unassigned; enantiomer 1) [Example 161, N-[(trans)-4-Hydroxytetrahydrofuran-3-yl]-3-oxo-2-(pyridin-3-yl)-6-[4-(trifluoromethoxy)phenyl]-2,3-dihydropyridazine-4-carboxamide, Enantiomer 1], the IC50 on AHR [1] was 103 nM; on AHR [2], more than 20000 nM.

`C[C@@H](NC(=O)c1cc(-c2ccc(Cl)cc2)nn(-c2cnsc2)c1=O)C(C)(C)O` [Example 326, 6-(4-Chlorophenyl)-N-[(2R)-3-hydroxy-3-methylbutan-2-yl]-3-oxo-2-(1,2-thiazol-4-yl)-2,3-dihydropyridazine-4-carboxamide]: the IC50 was 0.504 nM at AHR [1] and more than 20000 nM at AHR [2].

With `COC[C@@H](CO)NC(=O)c1cc(-c2ccc(Cl)cc2)nn(-c2cncc(F)c2)c1=O` [Example 85, 6-(4-Chlorophenyl)-2-(5-fluoropyridin-3-yl)-N-[(2R)-1-hydroxy-3-methoxypropan-2-yl]-3-oxo-2,3-dihydropyridazine-4-carboxamide], the values for the IC50 on AHR [1] and at AHR [2] were 36 nM and more than 20000 nM, respectively.

`CCC(CO)NC(=O)c1cc(-c2ccc(C)cc2)nn(-c2cnn(C)c2)c1=O` (stereo not drawn) [Example 4, N-(1-Hydroxybutan-2-yl)-6-(4-methylphenyl)-2-(1-methyl-1H-pyrazol-4-yl)-3-oxo-2,3-dihydropyridazine-4-carboxamide]: the IC50 is 9.52 nM on AHR [1] and more than 20000 nM at AHR [2].

In the case of `Cn1cc(-n2nc(-c3ccc(Cl)cc3)cc(C(=O)NC[C@@H](O)CO)c2=O)cn1` [Example 28, 6-(4-Chlorophenyl)-N-[(2R)-2,3-dihydroxypropyl]-2-(1-methyl-1H-pyrazol-4-yl)-3-oxo-2,3-dihydropyridazine-4-carboxamide], the half-maximal inhibitory concentration (IC50) at AHR [1] was 293 nM; on AHR [2], more than 20000 nM.

As to `C[C@@H](CO)NC(=O)c1cc(-c2ccc(Cl)cc2)nn(-c2cnoc2)c1=O` [Example 253, 6-(4-Chlorophenyl)-N-[(2S)-1-hydroxypropan-2-yl]-2-(1,2-oxazol-4-yl)-3-oxo-2,3-dihydropyridazine-4-carboxamide], the IC50 on AHR [1] was 19.4 nM; on AHR [2], more than 20000 nM.

As to `Cn1cc(-n2nc(-c3ccc(Cl)cc3)cc(C(=O)N[C@@H]3CCC[C@]3(C)O)c2=O)cn1` (single isomer, unassigned) [Example 336, 6-(4-Chlorophenyl)-N-[(cis)-2-hydroxy-2-methylcyclopentyl]-2-(1-methyl-1H-pyrazol-4-yl)-3-oxo-2,3-dihydropyridazine-4-carboxamide], the figures for the IC50 at AHR [1] and at AHR [2] were 42.9 nM and more than 20000 nM, respectively.

Turning to `C[C@@H](CO)NC(=O)c1cc(-c2ccc(Cl)cc2)nn(-c2cnn(C3CCC3)c2)c1=O` [Example 42, 6-(4-Chlorophenyl)-2-(1-cyclobutyl-1H-pyrazol-4-yl)-N-[(2S)-1-hydroxypropan-2-yl]-3-oxo-2,3-dihydropyridazine-4-carboxamide], the values for the IC50 on AHR [1] and on AHR [2] were 1570 nM and more than 20000 nM, respectively.

Regarding `C[C@@H](CO)NC(=O)c1cc(-c2ccc(C(F)(F)F)cc2)nn(-c2cnn(C(F)F)c2)c1=O` [Example 261, 2-[1-(Difluoromethyl)-1H-pyrazol-4-yl]-N-[(2S)-1-hydroxypropan-2-yl]-3-oxo-6-[4-(trifluoromethyl)phenyl]-2,3-dihydropyridazine-4-carboxamide], the IC50 is 33 nM at AHR [1] and more than 20000 nM at AHR [2].

Turning to `C[C@@H](CO)NC(=O)c1cc(-c2ccc(CF)cc2)nn(-c2cnn(C)c2)c1=O` [Example 287, 6-[4-(Fluoromethyl)phenyl]-N-[(2S)-1-hydroxypropan-2-yl]-2-(1-methyl-1H-pyrazol-4-yl)-3-oxo-2,3-dihydropyridazine-4-carboxamide], the IC50 on AHR [1] is 721 nM; at AHR [2], more than 20000 nM.

For `O=C(N[C@H]1COC[C@@H]1O)c1cc(-c2ccc(OC(F)(F)F)cc2)nn(-c2cccnc2)c1=O` (racemic) [Example 160, N-[(trans)-4-Hydroxytetrahydrofuran-3-yl]-3-oxo-2-(pyridin-3-yl)-6-[4-(trifluoromethoxy)phenyl]-2,3-dihydropyridazine-4-carboxamide], the IC50 on AHR [1] is 79.2 nM; on AHR [2], more than 20000 nM.

For `C[C@@H](CO)NC(=O)c1cc(-c2ccc(C#N)cc2)nn(-c2cccnc2)c1=O` [Example 179, 6-(4-Cyanophenyl)-N-[(2S)-1-hydroxypropan-2-yl]-3-oxo-2-(pyridin-3-yl)-2,3-dihydropyridazine-4-carboxamide], the figures for the IC50 at AHR [1] and on AHR [2] were 736 nM and more than 20000 nM, respectively.

With `C[C@H](NC(=O)c1cc(-c2ccc(C(F)(F)F)cc2)nn(-c2cnn(C)c2)c1=O)C(C)(C)O` [Example 206, N-[(2S)-3-Hydroxy-3-methylbutan-2-yl]-2-(1-methyl-1H-pyrazol-4-yl)-3-oxo-6-[4-(trifluoromethyl)phenyl]-2,3-dihydropyridazine-4-carboxamide], the IC50 on AHR [1] is 1.07 nM; on AHR [2], more than 20000 nM.

Consider `O=C(N[C@@H](CO)C(F)(F)F)c1cc(-c2ccc(Cl)cc2)nn(-c2cccnc2)c1=O` [Example 95, (−)-6-(4-Chlorophenyl)-3-oxo-2-(pyridin-3-yl)-N-[(2S)-1,1,1-trifluoro-3-hydroxypropan-2-yl]-2,3-dihydropyridazine-4-carboxamide], for which the IC50 at AHR [1] was 62.3 nM; on AHR [2] it was more than 20000 nM.

Regarding `O=C(N[C@@H]1CSC[C@@H]1O)c1cc(-c2ccc(C(F)(F)F)cc2)nn(-c2cccnc2)c1=O` (relative stereo) [Example 290, N-cis-4-Hydroxytetra-hydrothiophen-3-yl-3-oxo-2-(pyridin-3-yl)-6-[4-(trifluoromethyl)phenyl]-2,3-dihydropyridazine-4-carboxamide], the 50% inhibitory concentration (IC50) is 2.82 nM at AHR [1] and more than 20000 nM at AHR [2].

For `O=C(N[C@H]1COC[C@@H]1O)c1cc(-c2ccc(Cl)cc2)nn(-c2cccnc2)c1=O` (single isomer, unassigned; enantiomer 1) [Example 169, 6-(4-Chlorophenyl)-N-[(trans)-4-hydroxytetrahydrofuran-3-yl]-3-oxo-2-(pyridin-3-yl)-2,3-dihydropyridazine-4-carboxamide, Enantiomer 1], the results for the IC50 on AHR [1] and at AHR [2] were 31.7 nM and more than 20000 nM, respectively.

Consider `Cn1cc(-n2nc(-c3ccc(C(F)F)nc3)cc(C(=O)N[C@H]3CCCC[C@H]3O)c2=O)cn1` [Example 54, 6-[6-(Difluoromethyl)pyridin-3-yl]-N-[(1S,2R)-2-hydroxycyclohexyl]-2-(1-methyl-1H-pyrazol-4-yl)-3-oxo-2,3-dihydropyridazine-4-carboxamide], for which the IC50 at AHR [1] is 14.3 nM; at AHR [2], more than 20000 nM.

Consider `CC(C)(O)CNC(=O)c1cc(-c2ccc(OC(F)F)cc2)nn(-c2cccnc2)c1=O` [Example 331, 6-[4-(Difluoromethoxy)phenyl]-N-(2-hydroxy-2-methylpropyl)-3-oxo-2-(pyridin-3-yl)-2,3-dihydropyridazine-4-carboxamide], for which the IC50 at AHR [1] was 234 nM; on AHR [2], more than 20000 nM.

As for `Cc1ccc(-c2cc(C(=O)N[C@H](C)CO)c(=O)n(-c3cnn(C)c3)n2)cc1` [Example 9, N-[(2R)-1-Hydroxypropan-2-yl]-6-(4-methylphenyl)-2-(1-methyl-1H-pyrazol-4-yl)-3-oxo-2,3-dihydropyridazine-4-carboxamide], the IC50 at AHR [1] is 164 nM; at AHR [2], more than 20000 nM.

For `O=C(N[C@H](CO)C(F)(F)F)c1cc(-c2ccc(Cl)cc2)nn(-c2cnsc2)c1=O` [Example 198, 6-(4-Chlorophenyl)-3-oxo-2-(1,2-thiazol-4-yl)-N-[(2R)-1,1,1-trifluoro-3-hydroxypropan-2-yl]-2,3-dihydropyridazine-4-carboxamide], the concentration for half-maximal inhibition (IC50) on AHR [1] is 0.599 nM; on AHR [2], more than 20000 nM.

`O=C(NCC1(O)CC1)c1cc(-c2ccc(Cl)cc2)nn(-c2cccnc2)c1=O` [Example 263, 6-(4-Chlorophenyl)-N-[(1-hydroxycyclopropyl)methyl]-3-oxo-2-(pyridin-3-yl)-2,3-dihydropyridazine-4-carboxamide]: the results for the 50% inhibitory concentration (IC50) at AHR [1] and on AHR [2] were 41.9 nM and more than 20000 nM, respectively.

Usually IC50 stands for the concentration needed to halve the response being measured.
